The results in this text go back to article PMC3681500, “Development of an orally-administrative MELK-targeting inhibitor that suppresses the growth of various types of human cancer” (Oncotarget, 2012).

The target of this assay is MELK (maternal embryonic leucine zipper kinase) (Homo sapiens, UniProt Q14680). The assay can be described thus: IMAP kinase assay, high-throughput screen followed by dose-response. The format is biochemical.
Sequence of MELK (maternal embryonic leucine zipper kinase) (Q14680 whole entry): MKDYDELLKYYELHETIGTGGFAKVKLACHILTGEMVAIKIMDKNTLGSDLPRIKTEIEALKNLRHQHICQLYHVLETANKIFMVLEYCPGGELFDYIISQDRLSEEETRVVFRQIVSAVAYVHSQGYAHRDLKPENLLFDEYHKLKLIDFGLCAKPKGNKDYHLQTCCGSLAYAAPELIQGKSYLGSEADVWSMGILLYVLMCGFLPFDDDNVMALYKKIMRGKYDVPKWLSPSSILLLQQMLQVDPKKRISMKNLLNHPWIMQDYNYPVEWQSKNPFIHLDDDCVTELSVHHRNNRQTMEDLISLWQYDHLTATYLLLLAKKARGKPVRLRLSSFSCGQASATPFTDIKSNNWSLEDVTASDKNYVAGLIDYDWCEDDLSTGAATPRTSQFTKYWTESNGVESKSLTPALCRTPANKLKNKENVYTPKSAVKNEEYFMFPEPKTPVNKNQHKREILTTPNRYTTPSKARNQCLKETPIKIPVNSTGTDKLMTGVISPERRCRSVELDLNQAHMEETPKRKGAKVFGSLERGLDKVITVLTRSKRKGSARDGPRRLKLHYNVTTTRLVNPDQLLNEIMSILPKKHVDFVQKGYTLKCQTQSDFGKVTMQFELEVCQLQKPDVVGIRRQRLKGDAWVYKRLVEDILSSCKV

For the molecule `CCOC(=O)c1ccc2ncc(C(=O)OCC)c(Nc3ccc(NC(C)=O)cc3)c2c1` [compound 1, diethyl 4-(4-acetamidophenylamino) quinoline-3,6-dicarboxylate], the IC50 worked out at 4.8 µM.

One may read the IC50 as the midpoint of a concentration-inhibition curve. Higher therefore signals a need for much substance.
